In the experiment the test system is PMA-induced release of HB-EGF from PBMCs from healthy donors. The experiment in a line: ELISA-based HB-EGF release assay, PBMCs from healthy donors. The format is cell-based. As to conditions: Homo sapiens, PBMC; recombinant murine antibodies 1 μg/ml; Batimastat 10 μM; PMA 25 ng/ml, 6 hours. On the procedure:
In the following study, ELISA-based HB-EGF release assays were performed to analyze the inhibitory effects of the antibodies of the present disclosure on PMA-induced release of endogenous HB-EGF from primary human material obtained from healthy donors using peripheral blood mononuclear cells (PBMCs).
In brief, on day 1, Nunc black MaxiSorp® 96-well plates (Thermo Fisher Scientific, USA) were coated overnight with 100 μl per well of mouse anti-human HB-EGF capture antibody (provided as part of the DuoSet ELISA kit) at 4 μg/ml TBS at 4° C. On day 2, the capture antibody solution was removed and MaxiSorp® plates were blocked with 300 μl per well of TBS, 1% BSA at room temperature for 3 hours. […] Using an infinite M1000 (Tecan Group, Switzerland) microplate reader, the fluorescence of each well was collected at an excitation wavelength of 435 nm and an emission wavelength of 555 nm.

SMILES strings stand for the structures.

On to `CNC(=O)[C@H](Cc1ccccc1)NC(=O)[C@H](CC(C)C)[C@H](CSc1cccs1)C(=O)NO` [Batimastat], for which the inhibition (as a rule, the percentage by which the read-out fell short of the control) at 10 µM is 94.9%.

These data come from patent publication US20240174744A1, “METHODS OF TREATMENT USING PROTEIN BINDERS TO IRHOM2 EPITOPES” (SCIRHOM GMBH, priority 2021, published 2024).
